Test results published in ChEMBL document CHEMBL3879914, “Inhibitors of central nervous system vasoactive inhibitory peptide receptor 2” (2014).

Assays:
[1] = target: T1, Vasoactive intestinal polypeptide receptor 2 (Homo sapiens) (UniProt P41587); experiment: (§1) Antagonist activity at recombinant human N-terminal signal peptide/FLAG epitope-tagged VIPR2 expressed in HEK293 cells co-expressing CAMYEL assessed as inhibition of VIP-induced cAMP accumulation at 1 uM preincubated for 5 mins with luciferin, coelenterazine H followed by VIP addition measured after 5 mins by BRET assay relative to control; format: functional, cell-based
T1 sequence (whole entry): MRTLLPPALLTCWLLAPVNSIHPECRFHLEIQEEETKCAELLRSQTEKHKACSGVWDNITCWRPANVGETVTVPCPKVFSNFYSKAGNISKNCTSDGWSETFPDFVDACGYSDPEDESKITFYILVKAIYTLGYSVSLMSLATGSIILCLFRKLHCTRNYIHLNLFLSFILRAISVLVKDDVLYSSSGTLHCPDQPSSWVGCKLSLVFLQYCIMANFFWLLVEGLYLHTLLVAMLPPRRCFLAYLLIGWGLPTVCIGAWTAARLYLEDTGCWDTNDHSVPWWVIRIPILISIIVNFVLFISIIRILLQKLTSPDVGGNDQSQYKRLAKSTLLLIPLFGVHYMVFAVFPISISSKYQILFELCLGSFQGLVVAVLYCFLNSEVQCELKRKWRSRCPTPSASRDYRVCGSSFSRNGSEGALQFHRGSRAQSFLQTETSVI

[2] = target: T1, Vasoactive intestinal polypeptide receptor 2 (Homo sapiens); experiment: as §1, with “epitope-tagged Rluc8-fused” for “epitope-tagged”, “cells” for “cells co-expressing CAMYEL”, “human mVenus-beta-arrestin2 binding” for “cAMP accumulation”, “5” for “1”; format: cell-based
[3] = target: T1, Vasoactive intestinal polypeptide receptor 2 (Homo sapiens); experiment: as §1, with “epitope-tagged Rluc8-fused” for “epitope-tagged”, “cells” for “cells co-expressing CAMYEL”, “human mVenus-beta-arrestin2 binding” for “cAMP accumulation”; format: cell-based
[4] = target: T1, Vasoactive intestinal polypeptide receptor 2 (Homo sapiens); experiment: as §1, with “epitope-tagged Rluc8-fused” for “epitope-tagged”, “cells” for “cells co-expressing CAMYEL”, “human mVenus-beta-arrestin2 binding” for “cAMP accumulation”, “0.5” for “1”; format: cell-based
[5] = target: T1, Vasoactive intestinal polypeptide receptor 2 (Homo sapiens); experiment: as §1, with “5” for “1”; format: functional, cell-based
[6] = target: T1, Vasoactive intestinal polypeptide receptor 2 (Homo sapiens); experiment: as §1, with “0.5” for “1”; format: functional, cell-based

SMILES	inhibition [1]	inhibition [2]	inhibition [3]	inhibition [4]	inhibition [5]	inhibition [6]
CNc1ccc(S(=O)(=O)NC[C@@H](O)C[C@@H](Cc2ccccc2)C(=O)N[C@H]2c3ccccc3C[C@H]2O)cc1	2%	4.3%	1.1%	-1.5 to -0.8%	-7.3%	-0.9%
C#CCCCC(=O)NC[C@@H](O)C[C@@H](Cc1ccccc1)C(=O)N[C@H]1c2ccccc2C[C@H]1O	20.2%	25.8%	16.1%	26.2 to 45.8%	26.6%	20.8%
CCN(CC)C(=O)[C@@H](Cc1ccccc1)C[C@H](O)CNS(=O)(=O)c1ccc([N+](=O)[O-])cc1	-8.4%	-2.7%	1.2%	-6.6 to -3.6%		0.5%
O=C(NC1CCCC1)[C@@H](Cc1ccccc1)C[C@H](O)CNS(=O)(=O)c1ccc([N+](=O)[O-])cc1	-2.5%	1.3%	-6.1%	-5.7 to 0.5%	-0.3%	-7.5%
O=C(CCCCBr)NC[C@@H](O)C[C@@H](Cc1ccccc1)C(=O)N[C@H]1c2ccccc2C[C@H]1O	12.9%			-0.6 to 1.7%	9.4%	11.7%
C=Cc1ccc(C(=O)NC[C@@H](O)C[C@@H](Cc2ccccc2)C(=O)N[C@H]2c3ccccc3C[C@H]2O)cc1	16.5%	1.8%	47.5%	2.3 to 12.8%	23.8%	16.1%
CN(C)c1ccc(S(=O)(=O)NC[C@@H](O)C[C@@H](Cc2ccccc2)C(=O)N[C@H]2c3ccccc3C[C@H]2O)cc1	-1.4%	8.7%	-1.6%	2.65 to 4.2%	-3.4%	9.4%
C[C@H](CC(C)(C)C)NC(=O)[C@@H](Cc1ccccc1)C[C@H](O)CNS(=O)(=O)c1ccc([N+](=O)[O-])cc1	19.6%	20.2%	27.9%	13.8 to 36.8%	7.4%	6.5%
O=C(N[C@H]1c2ccccc2C[C@H]1O)[C@H](Cc1ccccc1)C[C@H](O)CNS(=O)(=O)c1ccc(C(F)(F)F)cc1	63.1%	92.9%	83%	58.1 to 95.7%	98.5%	42%
O=C(CCN1C(=O)C=CC1=O)NC[C@@H](O)C[C@@H](Cc1ccccc1)C(=O)N[C@H]1c2ccccc2C[C@H]1O	19%	-3.1%	15.2%	7.75 to 9.9%	18.6%	15.5%
CC(=O)Nc1ccc(S(=O)(=O)NC[C@H](C[C@@H](Cc2ccccc2)C(=O)N[C@H]2c3ccccc3C[C@H]2O)OC(C)=O)cc1	32.3%	10.5%	-1.8%	-9.8 to 6.75%	3%	-4.3%
NC(=O)[C@@H](Cc1ccccc1)C[C@H](O)CNS(=O)(=O)c1ccc([N+](=O)[O-])cc1	12.6%	7%	-9.8%	3.5 to 8.35%	9.7%	14.6%
Cc1ccc(S(=O)(=O)NC[C@@H](O)C[C@@H](Cc2ccccc2)C(=O)N[C@H]2c3ccccc3C[C@H]2O)c(C)c1	10.9%	31.8%	20.3%	2.8 to 27.6%	23.3%	14.1%
CC1CCC(NC(=O)[C@@H](Cc2ccccc2)C[C@H](O)CNS(=O)(=O)c2ccc([N+](=O)[O-])cc2)CC1 (stereo not given in full)	9.5%	-0.8%	-0.4%	2.15 to 5.7%	5.1%	-0.7%
O=C(NC[C@@H](O)C[C@@H](Cc1ccccc1)C(=O)N[C@H]1c2ccccc2C[C@H]1O)c1ccco1	22.5%	33.3%	27.7%	26.2 to 30.3%	19.1%	20.8%
C#CCNC(=O)[C@@H](Cc1ccccc1)C[C@H](O)CNS(=O)(=O)c1ccc([N+](=O)[O-])cc1	7.3%	7%	3.4%	3.3 to 10.2%	13.5%	3.1%
CCC(=O)Nc1ccc(S(=O)(=O)NC[C@@H](O)C[C@@H](Cc2ccccc2)C(=O)N[C@H]2c3ccccc3C[C@H]2O)cc1	1.5%		-1.2%	-3.4 to 8.25%	26.9%	0.6%

SMILES	inhibition [1]	inhibition [2]	inhibition [3]	inhibition [4]	inhibition [5]	inhibition [6]
CC(C)c1ccc(S(=O)(=O)NC[C@@H](O)C[C@@H](Cc2ccccc2)C(=O)N[C@H]2c3ccccc3C[C@H]2O)cc1	44.2%	87.7%	63.1%	31.5 to 93%	98.2%	36.5%
O=C([C@H](Cc1ccccc1)C[C@H](O)CNS(=O)(=O)c1ccc([N+](=O)[O-])cc1)N1CCC(CO)CC1	4.4%	-4.5%		-8.4 to 0.85%	6.2%	2.1%
C[C@H](CC(C)(C)C)NC(=O)[C@H](Cc1ccccc1)C[C@H](O)CNS(=O)(=O)c1ccc([N+](=O)[O-])cc1	4.4%		3%	-5.2 to 23.3%	-0.1%	-7.9%
O=C(N[C@H]1c2ccccc2C[C@H]1O)[C@H](Cc1ccccc1)C[C@H](O)CNS(=O)(=O)c1ccc(C(=O)N2CCCCC2)cc1	-7.3%			-6.85 to 0%	-1.4%	-5.3%
Cc1ccc([N+](=O)[O-])cc1S(=O)(=O)NC[C@@H](O)C[C@@H](Cc1ccccc1)C(=O)N[C@H]1c2ccccc2C[C@H]1O	13.6%	-0.6%	-3.8%		18.3%	10.9%
CCNC(=O)[C@@H](Cc1ccccc1)C[C@H](O)CNS(=O)(=O)c1ccc([N+](=O)[O-])cc1	-0.9%	-7.6%	6%	-10 to 14.9%		
O=C([C@H](Cc1ccccc1)C[C@H](O)CNS(=O)(=O)c1ccc([N+](=O)[O-])cc1)N1CCCCC1	-4.8%	-2.8%			0.5%	-4.8%
O=C(NCc1ccc(F)cc1F)[C@H](Cc1ccccc1)C[C@H](O)CNS(=O)(=O)c1ccc([N+](=O)[O-])cc1	7.2 to 22.1%	30.8%			22.1 to 23.6%	2.4%
CC(C)C(=O)NC[C@@H](O)C[C@@H](Cc1ccccc1)C(=O)N[C@H]1c2ccccc2C[C@H]1O	2.6%				-0.9%	0.7%
O=C(NC[C@@H](O)C[C@@H](Cc1ccccc1)C(=O)N[C@H]1c2ccccc2C[C@H]1O)c1ccncc1	19.2%	-8.8%	10.9%		21%	14.2%
CO[C@@H]1Cc2ccccc2[C@@H]1NC(=O)[C@H](Cc1ccccc1)C[C@H](O)CN(C)S(=O)(=O)c1ccc([N+](=O)[O-])cc1	11.3%			4.9 to 6.9%	26%	21.1%
O=C(NC1CCCCCC1)[C@H](Cc1ccccc1)C[C@H](O)CNS(=O)(=O)c1ccc([N+](=O)[O-])cc1	5.6%	-2.4%	-5.4%		12.9%	1.7%
CO[C@@H]1Cc2ccccc2[C@@H]1NC(=O)[C@H](Cc1ccccc1)C[C@H](O)CNS(=O)(=O)c1ccc([N+](=O)[O-])cc1	5.9%	-10%		-7.1 to -2.05%	5.9%	15.7%
CCNC(=O)[C@H](Cc1ccccc1)C[C@H](O)CNS(=O)(=O)c1ccc([N+](=O)[O-])cc1	-0.4%		0.1%	-9.25 to 15.2%	-6.2%	-7.1%
O=C([C@@H](Cc1ccccc1)C[C@H](O)CNS(=O)(=O)c1ccc([N+](=O)[O-])cc1)N1CCOCC1		0.3%		1.65 to 7%	3%	-5.8%
O=C(NC[C@@H](O)C[C@@H](Cc1ccccc1)C(=O)N[C@H]1c2ccccc2C[C@H]1O)c1cccc(CCl)c1	2.3%		5.7%	-8.1 to 2.4%	15.1%	0.5%
NC(=O)[C@H](Cc1ccccc1)C[C@H](O)CNS(=O)(=O)c1ccc([N+](=O)[O-])cc1	3.6%			-6.5 to 10.4%	2.1%	6.7%
